Test results as given in US20250171447A1, “ADENOSINE RECEPTOR ANTAGONISTS, PHARMACEUTICAL COMPOSITIONS AND THEIR USE THEREOF” (Merck Sharp & Dohme LLC, priority 2022, published 2025).
Each block holds one compound with its values, some of them ahead of it.

Columns and labels:
[1] = molecular target: human A2A adenosine receptor (Homo sapiens (Human), UniProt P29274); experiment: A2A receptor affinity binding assay (radioligand filtration binding or SPA, [3H]SCH58261); details: membranes from HEK293 or CHO cells expressing human A2A; Method (A) filtration or Method (B) SPA
Chain of human A2A adenosine receptor (P29274 whole entry): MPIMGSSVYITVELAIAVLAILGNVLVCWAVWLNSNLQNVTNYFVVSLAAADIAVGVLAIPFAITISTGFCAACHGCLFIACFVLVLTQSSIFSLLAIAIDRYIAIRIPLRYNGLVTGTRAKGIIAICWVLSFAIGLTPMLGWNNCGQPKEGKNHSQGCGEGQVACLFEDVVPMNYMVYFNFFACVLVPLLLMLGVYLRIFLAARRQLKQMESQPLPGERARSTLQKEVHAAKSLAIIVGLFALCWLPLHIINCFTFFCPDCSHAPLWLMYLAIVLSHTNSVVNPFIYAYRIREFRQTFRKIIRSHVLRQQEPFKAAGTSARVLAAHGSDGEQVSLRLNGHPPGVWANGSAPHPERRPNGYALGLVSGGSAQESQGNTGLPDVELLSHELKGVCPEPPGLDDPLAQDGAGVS

[2] = molecular target: human A2B adenosine receptor (Homo sapiens (Human), UniProt P29275); experiment: A2B binding affinity radioligand filtration binding assay; details: membranes from HEK293 cells expressing human A2B; tritiated proprietary A2B antagonist
Chain of human A2B adenosine receptor (P29275 whole entry): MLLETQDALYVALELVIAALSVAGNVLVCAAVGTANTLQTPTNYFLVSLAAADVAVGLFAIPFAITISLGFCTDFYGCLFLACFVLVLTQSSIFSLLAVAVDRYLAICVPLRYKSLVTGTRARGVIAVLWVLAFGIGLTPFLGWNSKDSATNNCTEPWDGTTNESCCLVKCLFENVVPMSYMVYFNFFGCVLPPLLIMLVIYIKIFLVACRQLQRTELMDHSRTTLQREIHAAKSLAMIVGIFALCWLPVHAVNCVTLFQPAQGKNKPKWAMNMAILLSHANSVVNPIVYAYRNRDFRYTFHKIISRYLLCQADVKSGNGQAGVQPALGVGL

Structure (SMILES): COc1cccc2c1nc(N)n1nc(C3CC3c3ccc4cnn(C)c4c3)nc21 (stereo not shown) [Ex-21, 7-methoxy-2-[2-(1-methyl-1H-indazol-6-yl)cyclopropyl][1,2,4] triazolo[1,5-c] quinazolin-5-amine]
IC50 [1]: 6.9 nM
IC50 [2]: 104 nM

Structure (SMILES): COc1cccc2c1nc(N)n1nc(C3CC3c3cncc(F)c3)nc21 (stereo not shown) [Ex-18, 2-[2-(5-fluoropyridin-3-yl)cyclopropyl]-7-methoxy[1,2,4]triazolo [1,5-c]quinazolin-5-amine]
IC50 [1]: 5.5 nM
IC50 [2]: 252 nM

Structure (SMILES): CNC(=O)c1ccc(C2CC2c2nc3c4cccc(OC)c4nc(N)n3n2)cc1 (stereo not shown) [Ex-19, 4-[2-(5-amino-7-methoxy[1,2,4]triazolo [1,5-c]quinazolin-2-yl)cyclopropyl]-N-methylbenzamide]
IC50 [1]: 5.8 nM
IC50 [2]: 32.9 nM

Structure (SMILES): COc1cccc2c1nc(N)n1nc(C3CC3c3cnn(CCO)c3)nc21 (stereo not shown) [Ex-23, 2-{4-[2-(5-amino-7-methoxy[1,2,4]triazolo [1,5-c]quinazolin-2-yl)cyclopropyl]-1H-pyrazol-1-yl} ethan-1-ol]
IC50 [1]: 8.3 nM
IC50 [2]: 118 nM

Structure (SMILES): COc1cccc2c1nc(N)n1nc(C3CC3c3ccc4c(c3)NCCO4)nc21 (stereo not shown) [Ex-24, 2-[2-(3,4-dihydro-2H-1,4-benzoxazin-6-yl)cyclopropy1]-7-methoxy[1,2,4]triazolo [1,5-c]quinazolin-5-amine]
IC50 [1]: 9 nM
IC50 [2]: 42.6 nM

Structure (SMILES): COc1cccc2c1nc(N)n1nc(C3CC3c3cnn(C)c3)nc21 (stereo not shown) [Ex-27, 7-methoxy-2-[2-(1-methyl-1H-pyrazol-4-yl)cyclopropyl][1,2,4] triazolo[1,5-c] quinazolin-5-amine]
IC50 [1]: 97.4 nM
IC50 [2]: 864 nM

Structure (SMILES): COc1cccc2c1nc(N)n1nc(C3CC3C)nc21 (stereo not shown) [Ex-10, 7-methoxy-2-[2-methylcyclopropyl] [1,2,4]triazolo[1,5-c] quinazolin-5-amine]
IC50 [1]: 2.6 nM
IC50 [2]: 45.4 nM

Structure (SMILES): COc1cccc2c1nc(N)n1nc(C3CC3c3cccc4c3CNC4=O)nc21 (stereo not shown) [Ex-20, 4-[2-(5-amino-7-methoxy[1,2,4]triazolo [1,5-c]quinazolin-2-yl)cyclopropyl]-2,3-dihydro-1H-isoindol-1-one]
IC50 [1]: 6.5 nM
IC50 [2]: 395 nM

Structure (SMILES): COc1cccc2c1nc(N)n1nc(C3CC3c3ccc(C(N)=O)c(F)c3)nc21 (stereo not shown) [Ex-17, 4-[2-(5-amino-7-methoxy[1,2,4]triazolo [1,5-c]quinazolin-2-yl)cyclopropyl]-2-fluorobenzamide]
IC50 [1]: 4.1 nM
IC50 [2]: 40.7 nM

Structure (SMILES): COc1cccc2c1nc(N)n1nc(C3CC3c3ccc4nnc(C)n4c3)nc21 (stereo not shown) [Ex-9, 7-methoxy-2-[2-(3-methyl[1,2,4]triazolo [4,3-a]pyridin-6-yl)cyclopropyl][1,2,4] triazolo[1,5-c] quinazolin-5-amine]
IC50 [1]: 2 nM
IC50 [2]: 337 nM

Structure (SMILES): COc1cccc2c1nc(N)n1nc(C3CC3c3c[nH]nc3C(F)(F)F)nc21 (stereo not shown) [Ex-25, 7-methoxy-2-{2-[3-(trifluoromethyl)-1H-pyrazol-4-yl]cyclopropyl} [1,2,4] triazolo[1,5-c] quinazolin-5-amine]
IC50 [1]: 9.9 nM
IC50 [2]: 96.3 nM

Structure (SMILES): COc1cccc2c1nc(N)n1nc(C3CC3c3cn4ccnc4cc3C)nc21 (stereo not shown) [Ex-7]
IC50 [1]: 1.3 nM
IC50 [2]: 66.1 nM

Structure (SMILES): COc1cccc2c1nc(N)n1nc(C3CC3c3ccc4nncn4c3)nc21 (stereo not shown) [Ex-13, 7-methoxy-2-[2-([1,2,4]triazolo[4,3-a]pyridin-6-yl)cyclopropyl][1,2,4] triazolo[1,5-c] quinazolin-5-amine]
IC50 [1]: 3.3 nM
IC50 [2]: 152 nM

Structure (SMILES): COc1cccc2c1nc(N)n1nc(C3CC3c3ccc4c(c3)CNC4=O)nc21 (stereo not shown) [Ex-8, 5-[2-(5-amino-7-methoxy[1,2,4]triazolo [1,5-c]quinazolin-2-yl)cyclopropyl]-2,3-dihydro-1H-isoindol-1-one]
IC50 [1]: 1.5 nM
IC50 [2]: 31 nM

Structure (SMILES): COc1cccc2c1nc(N)n1nc(C3CC3c3ccc(C)nc3)nc21 (stereo not shown) [Ex-11, 7-methoxy-2-[2-(6-methylpyridin-3-yl)cyclopropyl][1,2,4] triazolo[1,5-c] quinazolin-5-amine]
IC50 [1]: 3.1 nM
IC50 [2]: 78.4 nM

Structure (SMILES): COc1cccc2c1nc(N)n1nc(C3(CO)CC3)nc21 [Ex-30, [1-(5-amino-7-methoxy[1,2,4]triazolo [1,5-c]quinazolin-2-yl)cyclopropyl]methanol]
IC50 [1]: 43 nM
IC50 [2]: 906 nM

Structure (SMILES): COc1cccc2c1nc(N)n1nc([C@@H]3C[C@H]3c3ccccc3)nc21 [Ex-34, 7-methoxy-2-[(1r,2r)-2-phenylcyclopropyl] [1,2,4]triazolo[1,5-c] quinazolin-5-amine]
IC50 [1]: 0.1 nM
IC50 [2]: 18.2 nM

Structure (SMILES): COc1cccc2c1nc(N)n1nc(C3CC3c3ccc4c(c3)CCNC4)nc21 (stereo not shown) [Ex-38, 7-methoxy-2-[(1r,2r)-2-(1,2,3,4-tetrahydroisoquinolin-6-yl)cyclopropyl]-1,10b-dihydro[1,2,4]triazolo [1,5-c]quinazolin-5-amine]
IC50 [1]: 1.1 nM
IC50 [2]: 3.1 nM

Structure (SMILES): COc1cccc2c1nc(N)n1nc([C@@H]3C[C@H]3c3cnn(C)c3)nc21 [Ex-2, 7-methoxy-2-((1r,2r)-2-(1-methyl-1H-pyrazol-4-yl)cyclopropyl)-[1,2,4]triazolo[1,5-c]quinazolin-5-amine]
IC50 [1]: 2.6 nM
IC50 [2]: 50.4 nM

Structure (SMILES): COc1cccc2c1nc(N)n1nc(C3CC3c3ccccc3[C@H](C)O)nc21 (stereo partly drawn) [Ex-15, (1S)-1-{2-[2-(5-amino-7-methoxy[1,2,4]triazolo [1,5-c]quinazolin-2-yl)cyclopropyl]phenyl} ethan-1-ol]
IC50 [1]: 3.4 nM
IC50 [2]: 1840 nM

Structure (SMILES): COc1cccc2c1nc(N)n1nc(C3CC3c3cncc(C(C)(C)O)c3)nc21 (stereo not shown) [Ex-16, 2-{5-[2-(5-amino-7-methoxy[1,2,4]triazolo [1,5-c]quinazolin-2-yl)cyclopropyl]pyridin-3-yl} propan-2-ol]
IC50 [1]: 4 nM
IC50 [2]: 15.5 nM

Structure (SMILES): COc1cccc2c1nc(N)n1nc(C3CC3c3ccc4c(c3)C(=O)NC4)nc21 (stereo not shown) [Ex-6, 6-[2-(5-amino-7-methoxy[1,2,4]triazolo [1,5-c]quinazolin-2-yl)cyclopropyl]-2,3-dihydro-1H-isoindol-1-one]
IC50 [1]: 0.9 nM
IC50 [2]: 13.2 nM

Structure (SMILES): COc1cccc2c1nc(N)n1nc(C3CC3c3cccc(NC(C)=O)c3)nc21 (stereo not shown) [Ex-5, N-{3-[2-(5-amino-7-methoxy[1,2,4]triazolo [1,5-c]quinazolin-2-yl)cyclopropyl]phenyl} acetamide]
IC50 [1]: 0.5 nM
IC50 [2]: 15.4 nM

Structure (SMILES): COc1cccc2c1nc(N)n1nc(C3CC3c3ccccc3[C@@H](C)O)nc21 (stereo partly drawn) [Ex-12, (1R)-1-{2-[2-(5-amino-7-methoxy[1,2,4]triazolo [1,5-c]quinazolin-2-yl)cyclopropyl]phenyl} ethan-1-ol]
IC50 [1]: 3.2 nM
IC50 [2]: 281 nM

Further lines, results first:

IC50 [1]: 9.8 nM
IC50 [2]: 10.6 nM
Structure (SMILES): COc1cccc2c1nc(N)n1nc([C@H]3C[C@@H](c4cccc(C(C)(C)O)c4)C3)nc21 [Ex-47, 2-{3-[cis-3-(5-amino-7-methoxy [1,2,4]triazolo [1,5-c]quinazolin-2-yl)cyclobutyl]phenyl} propan-2-ol]

IC50 [1]: 35.9 nM
IC50 [2]: 2490 nM
Structure (SMILES): COc1cc(F)cc2c1nc(N)n1nc([C@H]3C[C@](O)(c4ccc(C(C)(C)O)nc4)C3)nc21 [Ex-139, (1s,3s)-3-(5-amino-9-fluoro-7-methoxy-[1,2,4]triazolo[1,5-c]quinazolin-2-yl)-1-(6-(2-hydroxypropan-2-yl)pyridin-3-yl)cyclobutan-1-ol]

IC50 [1]: 1.4 nM
IC50 [2]: 7.6 nM
Structure (SMILES): COc1cccc2c1nc(N)n1nc(C3CC3Cc3ccc(F)cc3)nc21 (stereo not shown) [Ex-40, 2-(2-(4-fluorobenzyl)cyclopropyl)-7-methoxy-[1,2,4]triazolo[1,5-c]quinazolin-5-amine]

IC50 [1]: 18.3 nM
IC50 [2]: 69 nM
Structure (SMILES): COc1cccc2c1nc(N)n1nc([C@H]3C[C@H](c4cccc(C(C)(C)O)c4)C3)nc21 [Ex-46, 2-{3-[trans-3-(5-amino-7-methoxy [1,2,4]triazolo [1,5-c]quinazolin-2-yl)cyclobutyl]phenyl} propan-2-ol]

IC50 [1]: 17.7 nM
IC50 [2]: 1980 nM
Structure (SMILES): COc1cccc2c1nc(N)n1nc(C3(c4ccccc4)CC3)nc21 [Ex-37, 7-methoxy-2-(1-phenylcyclopropyl) [1,2,4]triazolo[1,5-c] quinazolin-5-amine]

IC50 [1]: 2.2 nM
IC50 [2]: 116 nM
Structure (SMILES): COc1cccc2c1nc(N)n1nc([C@H]3C[C@H](c4ccccc4)C3)nc21 [Ex-136, 7-methoxy-2-((1r,3r)-3-phenylcyclobutyl)-[1,2,4]triazolo[1,5-c]quinazolin-5-amine]

IC50 [1]: 10.9 nM
IC50 [2]: 10.2 nM
Structure (SMILES): COc1cccc2c1nc(N)n1nc([C@H]3C[C@H](c4ccc(C(C)(C)O)cc4)C3)nc21 [Ex-43, 2-(4-((1r,3r)-3-(5-amino-7-methoxy-[1,2,4]triazolo[1,5-c]quinazolin-2-yl)cyclobutyl)phenyl)propan-2-ol]

IC50 [1]: 6.2 nM
IC50 [2]: 0.3 nM
Structure (SMILES): COc1cc(F)cc2c1nc(N)n1nc(C3CC(c4ccc(C(C)(C)N)cn4)C3)nc21 (stereo not shown) [Ex-69, 2-{3-[5-(2-aminopropan-2-yl)pyridin-2-yl]cyclobutyl}-9-fluoro-7-methoxy[1,2,4]triazolo[1,5-c]quinazolin-5-amine]

IC50 [1]: 7.3 nM
IC50 [2]: 35.3 nM
Structure (SMILES): COc1cccc2c1nc(N)n1nc([C@H]3C[C@@H](c4ccccc4)C3)nc21 [Ex-135, 7-methoxy-2-((1s,3s)-3-phenylcyclobutyl)-[1,2,4]triazolo[1,5-c]quinazolin-5-amine]

IC50 [1]: 2 nM
IC50 [2]: 2.2 nM
Structure (SMILES): COc1cccc2c1nc(N)n1nc([C@H]3C[C@H](c4ccc(C(C)(C)N)cn4)C3)nc21 [Ex-68, 2-((1r,3r)-3-(5-(2-aminopropan-2-yl)pyridin-2-yl)cyclobutyl)-7-methoxy-[1,2,4]triazolo[1,5-c]quinazolin-5-amine]

IC50 [1]: 4 nM
IC50 [2]: 2.1 nM
Structure (SMILES): COc1cccc2c1nc(N)n1nc([C@H]3C[C@@](O)(c4ccc(C(C)(C)O)cn4)C3)nc21 [Ex-137, (1r,3r)-3-(5-amino-7-methoxy-[1,2,4]triazolo[1,5-c]quinazolin-2-yl)-1-(5-(2-hydroxypropan-2-yl)pyridin-2-yl)cyclobutan-1-ol]
